Test results from paper PMC6720511, “Synthesis and biological evaluation of novel N-(piperazin-1-yl)alkyl-1H-dibenzo[a,c]carbazole derivatives of dehydroabietic acid as potential MEK inhibitors” (Journal of Enzyme Inhibition and Medicinal Chemistry, 2019).
Where two headings read alike, the source gives them in different places.

Experiments:
[1] = test system: normal hepatocyte cell line (QSG-7701); assay: MTT cytotoxic assay on normal hepatocytes; format: cell-based, human; conditions: mean value ± SD
Method: (§1) Three human hepatocarcinoma cell lines (SMMC-7721, HepG2 and Hep3B) and normal hepatocyte cell line (QSG-7701) were maintained in Dulbecco Modified Eagle Medium (DMEM) containing 4.0 mM L-Glutamine and 4500 mg/l Glucose supplemented with 10% (v/v) foetalbovine serum (FBS) and 100 unites/mL penicillin/streptomycin at 37 °C in humidified atmosphere of 5% CO2 and 95% air.
(§2) The in vitro cytotoxic activities of the carbazole derivatives of DHA were evaluated against three human hepatocarcinoma cell lines (SMMC-7721, HepG2 and Hep3B) and a normal human hepatocyte cell line (QSG-7701) via the MTT colorimetric method. Briefly, SMMC-7721, HepG2, Hep3B and QSG-7701 cells were harvested at log phase of growth and seeded in 96-well plates (100 µL/well at a density of 2 × 10^5 cells/mL). After 24 h incubation at 37 °C and 5% CO2 to allow cell attachment, cultures were exposed to various concentrations of the isolated compounds for 48 h. Finally, MTT solution (2.5 mg/mL in PBS) was added (40 µL/well). Plates were further incubated for 4 h at 37 °C, and the formazan crystals formed were dissolved by adding 150 µL/well of DMSO. Absorption at 570 nm was measured with an ELISA plate reader. […] Doxorubicin was co-assayed as positive control.

[2] = test system: three human hepatocarcinoma cell lines (SMMC-7721, HepG2 and Hep3B); assay: MTT cytotoxic assay, statements over the three cancer cell lines; format: cell-based; conditions: for cytotoxic activity against three cancer cell lines (in words): SMMC-7721, HepG2 and Hep3B
Method: as §1, §2

[3] = test system: HepG2; assay: MTT cytotoxic assay; format: cell-based, human; conditions: mean value ± SD
Method: as §1, §2

[4] = test system: SMMC-7721; assay: MTT cytotoxic assay; format: cell-based, human; conditions: mean value ± SD
Method: as §1, §2

[5] = test system: Hep3B; assay: MTT cytotoxic assay; format: cell-based, human; conditions: 48 h, mean value ± SD
Method: as §1, §2

[6] = Homo sapiens, at least one of SMMC-7721, HepG2, Hep3B, read-out: IC50 against at least one hepatocarcinoma cell line
[7] = at least one of SMMC-7721, HepG2, Hep3B, read-out: IC50 against at least one hepatocarcinoma cell line
[8] = over SMMC-7721, HepG2 and Hep3B, read-out: IC50 against the three cancer cell lines

Compound	IC50 ([3]; Homo sapiens, HepG2, 48 h) [µM]	IC50 ([4]; Homo sapiens, SMMC-7721, 48 h) [µM]	IC50 ([5]; Homo sapiens, Hep3B) [µM]	IC50 ([3]; 48 h) [µM]	IC50 ([4]; 48 h) [µM]	IC50 [5] [µM]	further results
COC(=O)C1(C)CCCC2(C)c3ccc(C(C)C)cc3-c3c(c4ccccc4n3CCN3CCN(C=O)CC3)C12 (centres unmarked) [Compound 6e, 2,3,4,4a,9,13c-Hexahydro-7-isopropyl-1,4a-dimethyl-9–(2-(4-formylpiperazin-1-yl)ethyl)-1H-dibenzo[a,c]carbazole-1-carboxylic acid methyl ester]	15.7 ± 1.61	17.3 ± 1.78	11.4 ± 0.53	–	–	–	IC50 ([1]; Homo sapiens, QSG7701, 48 h): > 50 µM; cytotoxic activity against three cancer cell lines (in words) [2]: moderate inhibitions
COC(=O)C1(C)CCCC2(C)c3ccc(C(C)C)cc3-c3c(c4ccccc4n3CCN3CCN(c4ccccc4)CC3)C12 (centres unmarked) [Compound 6f, 2,3,4,4a,9,13c-Hexahydro-7-isopropyl-1,4a-dimethyl-9–(2-(4-phenylpiperazin-1-yl)ethyl)-1H-dibenzo[a,c]carbazole-1-carboxylic acid methyl ester]	> 50	> 50	> 50	–	–	–	–
2,3,4,4a,9,13c-Hexahydro-7-isopropyl-1,4a-dimethyl-9–(2-(4-phenyl piperazin-1-yl)propyl)-1H-dibenzo[a,c]carbazole-1-carboxylic acid methyl ester [Compound 7f]	–	–	–	> 50	> 50	> 50	–
COc1cccc2c1C(=O)c1c(O)c3c(c(O)c1C2=O)C[C@@](O)(C(=O)CO)C[C@@H]3O[C@H]1C[C@H](N)[C@H](O)[C@H](C)O1 [Doxorubicin, reference compound]	2.38 ± 0.29	1.13 ± 0.11	1.02 ± 0.09	–	–	–	IC50 ([1]; Homo sapiens, QSG7701, 48 h): 13.8 ± 0.53 µM
2,3,4,4a,9,13c-Hexahydro-7-isopropyl-1,4a-dimethyl-9–(2-(4-benzylpiperazin -1-yl)butyl)-1H-dibenzo[a,c]carbazole-1-carboxylic acid methyl ester [Compound 8h]	–	–	–	> 50	> 50	> 50	–
COC(=O)C1(C)CCCC2(C)c3ccc(C(C)C)cc3-c3c(c4ccccc4n3CCN3CCN(Cc4ccccc4)CC3)C12 (centres unmarked) [Compound 6h, 2,3,4,4a,9,13c-Hexahydro-7-isopropyl-1,4a-dimethyl-9–(2-(4-benzylpiperazin-1-yl)ethyl)-1H-dibenzo[a,c]carbazole-1-carboxylic acid methyl ester]	> 50	> 50	> 50	–	–	–	–
2,3,4,4a,9,13c-Hexahydro-7-isopropyl-1,4a-dimethyl-9–(2-(4-phenyl piperazin-1-yl)butyl)-1H-dibenzo[a,c]carbazole-1-carboxylic acid methyl ester [Compound 8f]	–	–	–	> 50	> 50	> 50	–
COC(=O)C1(C)CCCC2(C)c3ccc(C(C)C)cc3-c3c(c4ccccc4n3CCN3CCCNCC3)C12 (centres unmarked) [Compound 6d, 2,3,4,4a,9,13c-Hexahydro-7-isopropyl-1,4a-dimethyl-9–(2-(1,4-diazepan-1-yl)ethyl)-1H-dibenzo[a,c]carbazole-1-carboxylic acid methyl ester]	5.87 ± 0.42	7.01 ± 0.74	6.31 ± 0.33	–	–	–	IC50 ([1]; Homo sapiens, QSG7701, 48 h): 22.1 ± 2.75 µM; IC50 [2, 6]: < 10 µM
2,3,4,4a,9,13c-Hexahydro-7-isopropyl-1,4a-dimethyl-9–(3-(4-methyl piperazin-1-yl)butyl)-1H-dibenzo[a,c]carbazole-1-carboxylic acid methyl ester [Compound 8b]	–	–	–	19.6 ± 2.91	34.9 ± 3.35	18.3 ± 1.02	IC50 ([1]; 48 h): > 50 µM
2,3,4,4a,9,13c-Hexahydro-7-isopropyl-1,4a-dimethyl-9–(2-(piperazin-1-yl) propyl)-1H-dibenzo[a,c]carbazole-1-carboxylic acid methyl ester [Compound 7a]	–	–	–	3.1 ± 0.45	5.1 ± 0.18	1.37 ± 0.2	IC50 ([1]; 48 h): 17.2 ± 1.89 µM; IC50 [2, 7]: < 10 µM; IC50 [2, 8]: 1.37 to 5.1 µM
2,3,4,4a,9,13c-Hexahydro-7-isopropyl-1,4a-dimethyl-9–(2-(4-benzylpiperazin-1-yl)propyl)-1H-dibenzo[a,c]carbazole-1-carboxylic acid methyl ester [Compound 7h]	–	–	–	> 50	> 50	> 50	–
2,3,4,4a,9,13c-Hexahydro-7-isopropyl-1,4a-dimethyl-9–(2-(4-(pyridine-2-yl) piperazin-1-yl)butyl)-1H-dibenzo[a,c]carbazole-1-carboxylic acid methyl ester [Compound 8g]	–	–	–	> 50	> 50	> 50	–
COC(=O)C1(C)CCCC2(C)c3ccc(C(C)C)cc3-c3c(c4ccccc4n3CCCN3CCN(C)CC3)C12 (centres unmarked) [Compound 7b, 2,3,4,4a,9,13c-Hexahydro-7-isopropyl-1,4a-dimethyl-9–(3-(4-methylpiperazin-1-yl)propyl)-1H-dibenzo[a,c]carbazole-1-carboxylic acid methyl ester]	29 ± 1.29	6.8 ± 0.72	5.98 ± 0.39	–	–	–	IC50 ([1]; Homo sapiens, QSG7701, 48 h): > 50 µM; IC50 [2, 6]: < 10 µM
2,3,4,4a,9,13c-Hexahydro-7-isopropyl-1,4a-dimethyl-9–(2-(piperazin-1-yl) butyl)-1H-dibenzo[a,c]carbazole-1-carboxylic acid methyl ester [Compound 8a]	–	–	–	4.8 ± 0.32	6.1 ± 0.47	2.89 ± 0.27	IC50 ([1]; 48 h): 23.4 ± 2.97 µM; IC50 [2, 7]: < 10 µM; IC50 [2, 8]: 2.89 to 6.1 µM
COC(=O)C1(C)CCCC2(C)c3ccc(C(C)C)cc3-c3c(c4ccccc4n3CCN3CCN(C)CC3)C12 (centres unmarked) [Compound 6b, 2,3,4,4a,9,13c-Hexahydro-7-isopropyl-1,4a-dimethyl-9–(2-(4-methylpiperazin-1-yl)ethyl)-1H-dibenzo[a,c]carbazole-1-carboxylic acid methyl ester]	11.7 ± 0.58	13.2 ± 0.76	6.78 ± 0.42	–	–	–	IC50 ([1]; Homo sapiens, QSG7701, 48 h): 27.5 ± 1.87 µM; IC50 [2, 6]: < 10 µM
2,3,4,4a,9,13c-Hexahydro-7-isopropyl-1,4a-dimethyl-9–(2-(4-formylpiperazin-1-yl)propyl)-1H-dibenzo[a,c]carbazole-1-carboxylic acid methyl ester [Compound 7e]	–	–	–	16.9 ± 1.58	23.3 ± 2.35	20 ± 1.22	IC50 ([1]; 48 h): > 50 µM; cytotoxic activity against three cancer cell lines (in words) [2]: moderate inhibitions
2,3,4,4a,9,13c-Hexahydro-7-isopropyl-1,4a-dimethyl-9–(2-(4-(pyridine-2-yl) piperazin-1-yl)propyl)-1H-dibenzo[a,c]carbazole-1-carboxylic acid methyl ester [Compound 7g]	–	–	–	> 50	> 50	> 50	–
2,3,4,4a,9,13c-Hexahydro-7-isopropyl-1,4a-dimethyl-9–(2-(4-ethylpiperazin -1-yl)propyl)-1H-dibenzo[a,c]carbazole-1-carboxylic acid methyl ester [Compound 7c]	–	–	–	> 50	> 50	40.7 ± 2.62	cytotoxic activity against three cancer cell lines (in words) [2]: weak or no inhibitions
2,3,4,4a,9,13c-Hexahydro-7-isopropyl-1,4a-dimethyl-9–(2-(1,4-diazepan-1-yl) butyl)-1H-dibenzo[a,c]carbazole-1-carboxylic acid methyl ester [Compound 8d]	–	–	–	11.5 ± 1.23	12.8 ± 0.84	14.4 ± 0.77	IC50 ([1]; 48 h): 43.6 ± 4.03 µM
2,3,4,4a,9,13c-Hexahydro-7-isopropyl-1,4a-dimethyl-9–(2-(4-ethylpiperazin -1-yl)butyl)-1H-dibenzo[a,c]carbazole-1-carboxylic acid methyl ester [Compound 8c]	–	–	–	> 50	> 50	> 50	cytotoxic activity against three cancer cell lines (in words) [2]: weak or no inhibitions
2,3,4,4a,9,13c-Hexahydro-7-isopropyl-1,4a-dimethyl-9–(2-(1,4-diazepan-1-yl) propyl)-1H-dibenzo[a,c]carbazole-1-carboxylic acid methyl ester [Compound 7d]	–	–	–	8.68 ± 1.13	10.3 ± 1.02	12.8 ± 0.67	IC50 ([1]; 48 h): 32.8 ± 3.22 µM; IC50 [2, 7]: < 10 µM
COC(=O)C1(C)CCCC2(C)c3ccc(C(C)C)cc3-c3c(c4ccccc4n3CCN3CCN(c4ccccn4)CC3)C12 (centres unmarked) [Compound 6g, 2,3,4,4a,9,13c-Hexahydro-7-isopropyl-1,4a-dimethyl-9–(2-(4-(pyridine-2-yl)piperazin-1-yl)ethyl)-1H-dibenzo[a,c]carbazole-1-carboxylic acid methyl ester]	> 50	> 50	> 50	–	–	–	–
